Where two headings read alike, the source gives them in different places.
What was measured:
[1] = Literature oral absorption of apple procyanidins (J. Agric. Food Chem., 54, 884-892, 2006); format: in vivo, rats; conditions: worked out from literature values, A in mg/kg
Excerpt: Studies on oral absorbability of various kinds of proanthocyanidins have reported that oligomers with a low degree of polymerization are efficiently orally absorbed (see R. R. Holt, S. A. Lazarus, M. C. Sullards, Q. Y. Zhu, D. D. Schramm, J. F. Hammerstone, C. G. Fraga, H. H. Schmitz and C. L. Keen, Procyanidin dimer B2 [epicatechin-(4β-8)-epicatechin] in human plasma after the consumption of a flavanol-rich cocoa. Am. J. Clin. Nutr. 2002, 76, p. 798-804. T. Shoji, S. Masumoto, N. Moriichi, H. Akiyama, T. Kanda, Y. Ohtake, Y. Goda. Apple procyanidin oligomers absorption in rats after oral administration: Analysis of procyanidins in plasma using the porter method and High-Performance Liquid Chromatography/Tandem Mass Spectrometry. J. Agric. Food Chem. 2006, 54, p. 884-892).

[2] = Apple, literature values; cited from earlier work
[3] = Oral absorbability evaluation test of proanthocyanidins extracted from Boysenberry seed (LC/MS/MS of blood plasma); format: in vivo, Wistar rats; conditions: Boysenberry seed (present invention); for B/A (blood concentration after 2 hours / administration quantity): A in mg/kg, B in μg/mL; for Blood concentration after 2 hours B: partitioned concentrate of seed extract 1000 mg/kg oral, Wistar rats, plasma
Method: The test animal used was Wistar rats (males, aged 9 weeks, with initial weight of 190 to 210 g, obtained from Japan SLC, Inc.). After fasting for 12 hours, the Wister rats were forcefully orally administered each 1000 mg/kg of the partitioned concentrate of seed extract or the partitioned concentrate of thermally-treated seed extract obtained in Example 1. Then, every 1, 2, 4, and 6 hours after the administration, the rats were killed to collect the whole blood. Each whole blood was centrifuged for 10 minutes at 4° C. at 2,000×g to obtain blood plasma as a supernatant. To 1 mL of each blood plasma were added 30 μL of 50% formic acid and 100 μL of 10 mM ascorbic acid solution to mix together, and to 1 mL of the mixed blood plasma solution were added 50 μL of (1 μg of) a catechol solution as an internal standard reagent and 30 μL of phosphoric acid to prepare each sample for analysis. Regarding the samples, measurements of a procyanidin dimer, a propelargonidin dimer, a procyanidin trimer, and a propelargonidin trimer were carried out at molecular weights of 577/289, 561/289, 865/289, and 849/289, using a liquid chromatography-mass spectrometry (LC/MS) (Shimadzu Prominence UFLC manufactured by Shimadzu Corp.; with ODS column; gradient elution with formic acid, methanol, and water) and MS/MS (API 3200 manufactured by Applied Biosystems Co. Ltd., negative-ion mode) to determine the quantities of the proanthocyanidins in the blood plasma. […] Additionally, FIG. 5 and Table 3 show LC/MS charts of the measurements of proanthocyanidin dimer and trimer components in the blood plasma after 2 hours of the administration of the partitioned concentrate of seed extract.

Structure (SMILES) | B/A (blood concentration after 2 hours / administration quantity) [1] | Blood concentration after 2 hours B [2] [ng/mL] | B/A (blood concentration after 2 hours / administration quantity) [3] | Blood concentration after 2 hours B [3] [ng/mL]
Oc1cc(O)c2c(c1)O[C@H](c1ccc(O)c(O)c1)[C@H](O)[C@H]2c1c(O)cc(O)c2c1O[C@H](c1ccc(O)c(O)c1)[C@@H](O)C2 [PC dimer B1] | 2.4 (×10^−6) (kg/ml) | 120 | – | –
Oc1cc(O)c2c(c1)O[C@H](c1ccc(O)c(O)c1)[C@@H](O)[C@@H]2c1c(O)cc(O)c2c1O[C@H](c1ccc(O)c(O)c1)[C@H](O)C2 [PC dimer B4, Procyanidin B4] | – | – | 32.9 (×10^−6) (kg/ml) | 560
Oc1cc(O)c2c(c1)O[C@H](c1ccc(O)c(O)c1)[C@H](O)[C@H]2c1c(O)cc(O)c2c1O[C@H](c1ccc(O)c(O)c1)[C@H](O)C2 [PC dimer B2, epicatechin-(4β-8)-epicatechin] | 2.5 (×10^−6) (kg/ml) | 230 | – | –
Oc1cc(O)c2c(c1)O[C@H](c1ccc(O)c(O)c1)[C@@H](O)[C@@H]2c1c(O)cc(O)c2c1O[C@H](c1ccc(O)c(O)c1)[C@@H](O)C2 [PC dimer B3, Procyanidin B3] | – | – | 30.0 (×10^−6) (kg/ml) | 120
Oc1cc(O)c2c(c1)O[C@H](c1ccc(O)c(O)c1)[C@H](O)[C@H]2c1c(O)cc(O)c2c1O[C@H](c1ccc(O)c(O)c1)[C@H](O)[C@H]2c1c(O)cc(O)c2c1O[C@H](c1ccc(O)c(O)c1)[C@H](O)C2 [PC trimer C1] | 1.9 (×10^−6) (kg/ml) | 120 | 25.0 (×10^−6) (kg/ml) | 200
